Values of other authors as cited in patent US20070254070A1, “Encapsulating Plant Extracts Adsorbed and/or Absorbed in Precipitated Silica” (AXISS FRANCE S.A.S., priority 2004, published 2007).

System: bacteria

Q: With `Cc1ccc(C(C)C)cc1O` [carvacrol] as the molecule, how does the action on bacteria read?
A: The action on bacteria was “bactericidal”.
